# Structures can show the parent of a compound that is named as a salt.
# System: rats
# Test: not given
# Conditions: icv administration (Thorsell et al. Neurosci. Lett. 2002); cited from earlier work
row,SMILES,ethanol self-administration
1,N=C(N)NCCC[C@H](NC(=O)CC1(CC(=O)N2CCN(C3c4ccccc4NC(=O)c4ccccc43)CC2)CCCC1)C(=O)NCCn1c(=O)n(-c2ccccc2)n(-c2ccccc2)c1=O (some centres unmarked) [BIIE0246],dose dependently reduced ethanol self-administration

# Target: T1, recombinant human NPY Y2 receptors (Homo sapiens, UniProt P49146)
# T1 construct: expressed in transfected cells; host or cells: CHO-C4 cells (membrane preparation)
# T1 sequence (P49146 1-381): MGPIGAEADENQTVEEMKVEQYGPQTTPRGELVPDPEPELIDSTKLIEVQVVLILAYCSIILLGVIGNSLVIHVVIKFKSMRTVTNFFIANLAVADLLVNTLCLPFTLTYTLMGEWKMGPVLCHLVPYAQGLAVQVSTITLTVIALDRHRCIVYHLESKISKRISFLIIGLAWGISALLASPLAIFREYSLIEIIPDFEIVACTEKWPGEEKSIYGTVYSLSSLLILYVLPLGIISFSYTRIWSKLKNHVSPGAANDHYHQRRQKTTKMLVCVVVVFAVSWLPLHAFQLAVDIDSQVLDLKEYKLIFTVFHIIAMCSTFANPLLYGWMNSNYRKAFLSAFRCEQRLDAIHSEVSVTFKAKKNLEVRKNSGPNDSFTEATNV
# Test: Scintillation proximity [35S]GTPγS binding assay (inhibition of 0.5 nM NPY-stimulated [35S]GTPγS binding)
# Format: biochemical
# Conditions: 10 μM compound, membranes from CHO-C4 cells expressing recombinant human NPY Y2 receptors, read-out: [%] inhibiton at 10 μM
# Description: Preparation of Membranes: CHO-C4 cells expressing recombinant human NPY Y2 receptors were used to prepare membranes for the GTPγS assay. Cells were grown to 80-95% confluency on 15-cm (225 cm^2) tissue culture plates. After aspiration of the culture medium, cells were washed twice with 18 ml ice-cold phosphate-buffered saline (PBS), scraped off and suspended in 3 ml ice-cold PBS in pre-cooled centrifuge tubes. The dishes were rinsed with 2 ml ice-cold PBS per dish and the washings were combined with the PBS cell suspension from above. Cells pooled from 5-7 dishes were centrifuged for 5 min at 10,000 rpm (12,000 g) in a Sorvall RC5B centrifuge using an SS34 rotor at 4° C. The cell pellet was resuspended in 5 ml ice-cold buffer (20 mM HEPES, 10 mM EDTA; pH 7.4) by vortexing (2-5 sec), homogenized using a Polytron (step 4 for 20-30 sec), and ice-cold buffer added to 25 ml. The suspension was centrifuged again for 20 min at 18,000 rpm (39,000 g) at 4° C. and the pellet resuspended in 5 ml ice-cold buffer (20 mM HEPES, 0.1 mM EDTA; pH 7.4) by vortexing (2-5 sec), homogenized with a Polytron (step 4 for 10 sec), and ice-cold buffer added to 25 ml. The suspension was centrifuged a third time for 20 min at 18,000 rpm (39,000 g) at 4° C. The pellet was resuspend in 1 ml ice-cold buffer (20 mM HEPES, 0.1 mM EDTA; pH 7.4) by vortexing (5-8 sec). Two to five resuspended pellets were combined and homogenized using a Polytron (step 4 for 15-25 sec). A small aliquot (20-50 μl) was removed for protein determination by the Coomassie Plus Protein Assay Reagent (Pierce) using BSA as standard. The membrane suspension was aliquoted in pre-cooled (on dry ice) Eppendorf tubes (0.25-1 ml/tube affording approximately 0.5-2 mg of membrane protein/tube). The pellets were frozen and stored at −80° C.
# Scintillation proximity [^35S]GTPγS binding assay: Frozen membranes from CHO-C4 cells expressing recombinant human NPY Y2 receptors (2 mg for four 96-well plates) were thawed on ice. Thawed membranes were pipetted into 10 ml of assay buffer (20 mM HEPES, 10 mM MgCl2, 100 mM NaCl, pH 7.4) and homogenized briefly using a Polytron. The final assay mixture was prepared in 96-well microtiter plates (Isoplate Wallac, Perkin Elmer). The composition of the assay mixtures in a final volume of 250 μl per well was as follows: 20 mM HEPES, 10 mM MgCl2, 100 mM NaCl, pH 7.4, 30 μM GDP, 1 mg/ml BSA (added fresh), 5 μg membrane protein, 1.5 mg Wheatgerm agglutinin SPA beads (Amersham), 0.45 nM [^35S]GTPγS (Amersham, SJ1308. 1000 Ci/mmol, stabilized solution), and the test compounds (agonists and/or antagonists) at the appropriate concentrations. The samples were incubated at room temperature for 90 min by shaking, after which the SPA beads were sedimented by centrifugation in an Eppendorf 5804 centrifuge at 2700 rpm for 10 min at room temperature. After 60 min the plates were counted in a TopCount (Canberra). Basal [^35S]GTPγS binding was measured in the absence of agonist (NPY). Non-specific binding was measured in the presence of excess (10 μM) unlabelled GTPγS (Sigma). Nonspecific binding never exceeded 10% of basal binding and was thus not subtracted from the experimental data. Antagonists were tested for the inhibition of 0.5 nM NPY-stimulated [^35S]GTPγS binding. Antagonist inhibition curves were analyzed by non-linear regression using GraphPad Prism software (Version 4.0, GraphPad Software Inc., CA, USA).
# Antagonistic activity of compounds of the present invention is examined by the Scintillation proximity [^35S]GTPγS binding assay as described above (inhibition of 0.5 nM NPY-stimulated [^35S]GTPγS binding). The table below represents percentages of inhibition at a concentration of 10 μM.
row,inhibition at 10 µM [%],SMILES
1,95,"Cc1noc(C)c1NC(=O)Nc1ccc(N2CCN(C(c3ccccc3)c3ccccc3)CC2)c(C#N)c1 [Compound 1, 1-[4-(4-Benzhydryl-piperazin-1-yl)-3-cyano-phenyl]-3-(3,5-dimethyl-isoxazol-4-yl)-urea]"
2,89,"N#Cc1cc(NC(=O)C2CCOC2)ccc1N1CCN(C(c2ccccc2)c2ccccc2)CC1 (centres unmarked) [Compound 2, Tetrahydro-furan-3-carboxylic acid [4-(4-benzhydryl-piperazin-1-yl)-3-cyano-phenyl]-amide]"
3,89,CCC(CC)C(=O)Nc1ccc(N2CCN(C(c3ccccc3)c3ccccc3)CC2)c(F)c1 [Compound 6]
4,85,"Cc1noc(C)c1C(=O)Nc1ccc(N2CCN(C(c3ccccc3)c3ccccc3)CC2)c(F)c1 [Compound 9, 3,5-Dimethyl-isoxazole-4-carboxylic acid [4-(4-benzhydryl-piperazin-1-yl)-3-fluoro-phenyl]-amide]"
5,85,"Cc1ncccc1C(=O)Nc1ccc(N2CCN(C(c3ccccc3)c3ccccc3)CC2)c(F)c1 [Compound 10, N-[4-(4-Benzhydryl-piperazin-1-yl)-3-fluoro-phenyl]-2-methyl-nicotinamide]"
6,62,"Cn1cccc1C(=O)Nc1ccc(N2CCN(C(c3ccccc3)c3ccccc3)CC2)c(F)c1 [Compound 11, 1-Methyl-1H-pyrrole-2-carboxylic acid [4-(4-benzhydryl-piperazin-1-yl)-3-fluoro-phenyl]-amide]"
7,65,"Cn1nccc1C(=O)Nc1ccc(N2CCN(C(c3ccccc3)c3ccccc3)CC2)c(F)c1 [Compound 12, 2-Methyl-2H-pyrazole-3-carboxylic acid [4-(4-benzhydryl-piperazin-1-yl)-3-fluoro-phenyl]-amide]"
8,91,Cc1noc(C)c1NC(=O)Nc1ccc(N2CCC(C(c3ccccc3)c3ccccc3)CC2)c(C#N)c1 [Compound 13]
9,86,"CCC(CC)C(=O)Nc1ccc(N2CCC(C(c3ccccc3)c3ccccc3)CC2)c(C#N)c1 [Compound 15, N-[4-(4-Benzhydryl-piperidin-1-yl)-3-cyano-phenyl]-2-ethyl-butyramide]"
10,90,"Cc1noc(C)c1NC(=O)Nc1ccc(N2CCC(C(c3ccccc3)c3ccccc3)CC2)c(F)c1 [Compound 16, 1-[4-(4-Benzhydryl-piperidin-1-yl)-3-fluoro-phenyl]-3-(3,5-dimethyl-isoxazol-4-yl)-urea]"
11,86,"O=C(Nc1ccc(N2CCC(C(c3ccccc3)c3ccccc3)CC2)c(F)c1)C1CCOC1 (centres unmarked) [Compound 17, Tetrahydro-furan-3-carboxylic acid [4-(4-benzhydryl-piperidin-1-yl)-3-fluoro-phenyl]-amide]"
12,82,"CCC(CC)c1nc2cc(N3CCN(C(c4ccccc4)c4ccccc4)CC3)c(F)cc2[nH]1 [Compound 19, 5-(4-Benzhydryl-piperazin-1-yl)-2-(1-ethyl-propyl)-6-fluoro-1H-benzoimidazole]"
13,44,"Cc1noc(C)c1-c1nc2cc(N3CCN(C(c4ccccc4)c4ccccc4)CC3)c(F)cc2[nH]1 [Compound 21, 5-(4-Benzhydryl-piperazin-1-yl)-2-(3,5-dimethyl-isoxazol-4-yl)-6-fluoro-1H-benzoimidazole]"
14,71,"Cc1noc(C)c1Nc1nc2cc(N3CCN(C(c4ccccc4)c4ccccc4)CC3)c(F)cc2[nH]1 [Compound 22, [5-(4-Benzhydryl-piperazin-1-yl)-6-fluoro-1H-benzoimidazol-2-yl]-(3,5-dimethyl-isoxazol-4-yl)-amine triluoroacetate salt]"
15,90,"CCC(CC)C(=O)Nc1ccc(N2CCN(C(c3ccccn3)[C@H]3CCCO3)CC2)c(F)c1 (stereo partly drawn) [Compound 25, 2-Ethyl-N-{3-fluoro-4-[4-((R)-pyridin-2-yl-tetrahydro-furan-2-yl-methyl)-piperazin-1-yl]-phenyl}-butyramide]"

# Continued, molecule first:
row,SMILES,inhibition at 10 µM [%]
1,"CCC(CC)C(=O)Nc1ccc(N2CCN(C(c3ccccc3)c3ccccc3)CC2)c(C#N)c1 [Compound 3, N-[4-(4-Benzhydryl-piperazin-1-yl)-3-cyano-phenyl]-2-ethyl-butyramide]",88
2,"Cc1noc(C)c1NC(=O)Nc1ccc(N2CCN(C(c3ccccc3)c3ccccc3)CC2)c(F)c1 [Compound 4, 1-[4-(4-Benzhydryl-piperazin-1-yl)-3-fluoro-phenyl]-3-(3,5-dimethyl-isoxazol-4-yl)-urea]",89
3,O=C(Nc1ccc(N2CCN(C(c3ccccc3)c3ccccc3)CC2)c(F)c1)C1CCOC1 (centres unmarked) [Compound 5],85
4,Cc1noc(C)c1NC(=O)Nc1ccc(N2CCN(C(c3ccc(F)cc3)c3ccc(F)cc3)CC2)c(C#N)c1 [Compound 7],87
5,"Cc1noc(C)c1NC(=O)Nc1ccc(N2CCN(C(c3ccc(F)cc3)c3ccc(F)cc3)CC2)c(F)c1 [Compound 8, 1-(4-{4-[Bis-(4-fluoro-phenyl)-methyl]-piperazin-1-yl}-3-fluoro-phenyl)-3-(3,5-dimethyl-isoxazol-4-yl)-urea]",86
6,"N#Cc1cc(NC(=O)C2CCOC2)ccc1N1CCC(C(c2ccccc2)c2ccccc2)CC1 (centres unmarked) [Compound 14, Tetrahydro-furan-3-carboxylic acid [4-(4-benzhydryl-piperidin-1-yl)-3-cyano-phenyl]-amide]",90
7,"CCC(CC)C(=O)Nc1ccc(N2CCC(C(c3ccccc3)c3ccccc3)CC2)c(F)c1 [Compound 18, N-[4-(4-Benzhydryl-piperidin-1-yl)-3-fluoro-phenyl]-2-ethyl-butyramide]",85
8,"Fc1cc2[nH]c(C3CCOC3)nc2cc1N1CCN(C(c2ccccc2)c2ccccc2)CC1 (centres unmarked) [Compound 20, 5-(4-Benzhydryl-piperazin-1-yl)-6-fluoro-2-(tetrahydro-furan-3-yl)-1H-benzoimidazole]",53
9,"CCC(CC)Nc1nc2cc(N3CCN(C(c4ccccc4)c4ccccc4)CC3)c(F)cc2[nH]1 [Compound 23, 5-(4-Benzhydryl-piperazin-1-yl)-6-fluoro-1H-benzoimidazol-2-yl]-(1-ethyl-propyl)-amine triluoroacetate salt]",72
10,"CCC(CC)C(=O)Nc1ccc(N2CCC(C(c3ccccn3)c3ccccn3)CC2)c(F)c1 [Compound 24, N-{4-[4-(Di-pyridin-2-yl-methyl)-piperidin-1-yl]-3-fluoro-phenyl}-2-ethyl-butyramide]",95
